Laboratory results taken from paper PMC4286194 (Biochemical Journal, 2015).

Tests used:
BRK = BRK (Homo sapiens, UniProt Q13882); assay: Kinase profiling; type: biochemical
EPH-B2 = EPH-B2 (Homo sapiens, UniProt P29323); assay: Kinase profiling; type: biochemical
EPH-B4 = EPH-B4 (Homo sapiens, UniProt P54760); assay: Kinase profiling; type: biochemical
PHK = PHK (Homo sapiens, UniProt Q16816); assay: Kinase profiling; type: biochemical
Src = Src (Homo sapiens, UniProt P12931); assay: Kinase profiling; type: biochemical
STK33 = STK33 (Homo sapiens, UniProt Q9BYT3); assay: Kinase profiling; type: biochemical
TGFBR1 = TGFBR1 (Homo sapiens, UniProt P36897); assay: Kinase profiling; type: biochemical
BTK = BTK (Homo sapiens, UniProt Q06187); assay: Kinase assay, IC50 curve; type: biochemical; design: BTK (amino acids 2–659); His6 (N); made in house; host or cells: Sf9 insect cells; settings: read-out: IC50 against BTK
Chain of BTK (Q06187 2-659, species assumed): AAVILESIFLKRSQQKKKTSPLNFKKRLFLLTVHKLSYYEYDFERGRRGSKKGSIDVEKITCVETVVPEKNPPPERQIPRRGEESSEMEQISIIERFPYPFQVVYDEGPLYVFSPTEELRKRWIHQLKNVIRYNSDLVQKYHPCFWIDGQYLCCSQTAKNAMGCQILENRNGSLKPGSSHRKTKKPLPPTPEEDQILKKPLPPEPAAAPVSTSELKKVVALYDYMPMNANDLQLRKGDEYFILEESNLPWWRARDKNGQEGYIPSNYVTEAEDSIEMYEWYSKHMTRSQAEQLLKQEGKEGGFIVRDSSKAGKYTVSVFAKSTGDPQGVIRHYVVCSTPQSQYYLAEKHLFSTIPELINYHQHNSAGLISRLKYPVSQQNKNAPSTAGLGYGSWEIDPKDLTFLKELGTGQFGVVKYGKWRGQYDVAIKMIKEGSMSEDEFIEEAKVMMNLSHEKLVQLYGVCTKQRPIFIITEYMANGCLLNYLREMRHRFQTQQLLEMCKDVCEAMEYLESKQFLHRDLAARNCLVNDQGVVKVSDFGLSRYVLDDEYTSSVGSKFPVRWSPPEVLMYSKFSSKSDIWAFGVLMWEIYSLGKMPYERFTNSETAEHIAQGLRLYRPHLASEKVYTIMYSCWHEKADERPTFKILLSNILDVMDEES

Chain of BRK (Q13882 whole entry): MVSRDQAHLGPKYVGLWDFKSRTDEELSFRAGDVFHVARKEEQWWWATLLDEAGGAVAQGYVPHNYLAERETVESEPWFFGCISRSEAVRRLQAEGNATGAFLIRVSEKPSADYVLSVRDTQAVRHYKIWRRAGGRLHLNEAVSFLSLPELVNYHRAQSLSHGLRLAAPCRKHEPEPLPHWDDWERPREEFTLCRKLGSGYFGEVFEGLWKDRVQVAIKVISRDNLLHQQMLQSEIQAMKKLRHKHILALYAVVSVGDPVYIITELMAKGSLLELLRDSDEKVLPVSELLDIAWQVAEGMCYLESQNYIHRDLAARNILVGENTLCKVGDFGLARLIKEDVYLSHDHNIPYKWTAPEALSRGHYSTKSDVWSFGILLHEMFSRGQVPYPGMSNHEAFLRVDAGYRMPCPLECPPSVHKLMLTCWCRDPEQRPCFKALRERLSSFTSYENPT
Chain of EPH-B4 (P54760 16-987): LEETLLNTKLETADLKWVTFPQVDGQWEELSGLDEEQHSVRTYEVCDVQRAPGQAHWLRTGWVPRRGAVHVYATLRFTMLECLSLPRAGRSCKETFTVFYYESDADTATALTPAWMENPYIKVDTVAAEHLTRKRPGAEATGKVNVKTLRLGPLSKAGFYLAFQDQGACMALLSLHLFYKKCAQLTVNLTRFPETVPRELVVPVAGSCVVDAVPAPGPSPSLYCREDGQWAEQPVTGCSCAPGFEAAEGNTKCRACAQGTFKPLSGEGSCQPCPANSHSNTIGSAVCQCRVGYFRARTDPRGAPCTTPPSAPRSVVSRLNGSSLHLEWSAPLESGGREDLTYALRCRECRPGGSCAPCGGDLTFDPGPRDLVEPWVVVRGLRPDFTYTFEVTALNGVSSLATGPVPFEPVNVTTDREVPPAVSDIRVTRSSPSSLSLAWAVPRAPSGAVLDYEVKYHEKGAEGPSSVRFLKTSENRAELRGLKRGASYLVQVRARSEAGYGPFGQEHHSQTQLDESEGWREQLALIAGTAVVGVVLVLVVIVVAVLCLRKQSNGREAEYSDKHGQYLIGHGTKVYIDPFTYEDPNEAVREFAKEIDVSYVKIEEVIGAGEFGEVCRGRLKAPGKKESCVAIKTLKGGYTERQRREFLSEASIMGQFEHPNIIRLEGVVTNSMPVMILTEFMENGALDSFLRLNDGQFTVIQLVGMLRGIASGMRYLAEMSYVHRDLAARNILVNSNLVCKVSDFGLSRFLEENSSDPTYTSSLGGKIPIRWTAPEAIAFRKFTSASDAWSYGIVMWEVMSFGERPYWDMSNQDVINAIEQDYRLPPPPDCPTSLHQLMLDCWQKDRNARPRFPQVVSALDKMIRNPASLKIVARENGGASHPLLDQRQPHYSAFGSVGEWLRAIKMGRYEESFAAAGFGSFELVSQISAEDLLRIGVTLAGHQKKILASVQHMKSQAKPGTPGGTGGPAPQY
Chain of EPH-B2 (P29323 19-1055): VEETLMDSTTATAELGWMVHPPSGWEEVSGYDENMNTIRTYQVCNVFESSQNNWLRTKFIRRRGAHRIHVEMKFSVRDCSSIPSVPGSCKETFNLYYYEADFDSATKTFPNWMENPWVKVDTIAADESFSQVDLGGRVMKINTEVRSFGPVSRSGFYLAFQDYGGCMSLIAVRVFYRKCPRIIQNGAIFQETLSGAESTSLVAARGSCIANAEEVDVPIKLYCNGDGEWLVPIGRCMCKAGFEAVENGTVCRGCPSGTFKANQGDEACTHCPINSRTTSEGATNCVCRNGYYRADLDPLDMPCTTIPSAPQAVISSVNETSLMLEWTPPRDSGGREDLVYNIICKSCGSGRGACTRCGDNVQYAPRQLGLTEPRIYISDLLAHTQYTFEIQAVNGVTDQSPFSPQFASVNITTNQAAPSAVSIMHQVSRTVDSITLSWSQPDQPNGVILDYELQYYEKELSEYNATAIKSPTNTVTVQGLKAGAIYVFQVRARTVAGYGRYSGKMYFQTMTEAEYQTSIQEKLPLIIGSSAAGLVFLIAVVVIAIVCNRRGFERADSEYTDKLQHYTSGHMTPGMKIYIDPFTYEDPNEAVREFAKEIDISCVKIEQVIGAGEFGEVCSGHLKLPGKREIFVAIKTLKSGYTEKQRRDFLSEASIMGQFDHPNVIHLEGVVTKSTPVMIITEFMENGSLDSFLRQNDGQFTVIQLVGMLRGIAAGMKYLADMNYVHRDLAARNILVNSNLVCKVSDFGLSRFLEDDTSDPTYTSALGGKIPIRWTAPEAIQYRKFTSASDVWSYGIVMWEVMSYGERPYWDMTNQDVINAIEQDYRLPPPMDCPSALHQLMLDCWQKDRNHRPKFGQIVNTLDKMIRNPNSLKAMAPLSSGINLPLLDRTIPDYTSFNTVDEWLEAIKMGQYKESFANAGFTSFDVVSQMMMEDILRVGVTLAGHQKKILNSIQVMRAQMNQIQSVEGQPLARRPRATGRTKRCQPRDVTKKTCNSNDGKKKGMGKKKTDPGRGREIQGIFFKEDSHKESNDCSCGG
Chain of STK33 (Q9BYT3 whole entry): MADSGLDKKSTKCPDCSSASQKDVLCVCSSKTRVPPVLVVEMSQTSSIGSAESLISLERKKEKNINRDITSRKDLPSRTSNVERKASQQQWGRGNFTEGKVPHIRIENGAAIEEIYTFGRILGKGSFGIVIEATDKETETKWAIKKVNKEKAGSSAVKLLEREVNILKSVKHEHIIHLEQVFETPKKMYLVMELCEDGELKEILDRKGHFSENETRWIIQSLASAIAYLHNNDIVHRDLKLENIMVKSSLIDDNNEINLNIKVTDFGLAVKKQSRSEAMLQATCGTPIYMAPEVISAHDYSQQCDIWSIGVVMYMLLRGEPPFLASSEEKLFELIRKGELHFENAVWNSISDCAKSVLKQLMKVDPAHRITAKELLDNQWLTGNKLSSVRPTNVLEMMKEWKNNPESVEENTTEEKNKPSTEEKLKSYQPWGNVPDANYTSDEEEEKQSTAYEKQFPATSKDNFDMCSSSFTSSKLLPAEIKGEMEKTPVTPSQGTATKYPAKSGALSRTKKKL
Chain of TGFBR1 (P36897 34-503): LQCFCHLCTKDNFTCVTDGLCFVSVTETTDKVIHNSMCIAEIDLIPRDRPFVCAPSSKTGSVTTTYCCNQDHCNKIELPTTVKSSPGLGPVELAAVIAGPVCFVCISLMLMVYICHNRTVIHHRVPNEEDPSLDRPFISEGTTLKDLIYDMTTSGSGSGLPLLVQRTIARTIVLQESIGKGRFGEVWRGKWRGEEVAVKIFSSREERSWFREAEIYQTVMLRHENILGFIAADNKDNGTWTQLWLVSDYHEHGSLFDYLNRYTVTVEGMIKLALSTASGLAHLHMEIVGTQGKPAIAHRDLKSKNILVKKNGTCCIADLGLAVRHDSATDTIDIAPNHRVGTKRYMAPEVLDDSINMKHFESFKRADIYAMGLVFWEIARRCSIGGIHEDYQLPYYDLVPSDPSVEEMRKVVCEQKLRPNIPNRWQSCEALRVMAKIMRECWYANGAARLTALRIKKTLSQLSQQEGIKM
Chain of PHK (Q16816 whole entry): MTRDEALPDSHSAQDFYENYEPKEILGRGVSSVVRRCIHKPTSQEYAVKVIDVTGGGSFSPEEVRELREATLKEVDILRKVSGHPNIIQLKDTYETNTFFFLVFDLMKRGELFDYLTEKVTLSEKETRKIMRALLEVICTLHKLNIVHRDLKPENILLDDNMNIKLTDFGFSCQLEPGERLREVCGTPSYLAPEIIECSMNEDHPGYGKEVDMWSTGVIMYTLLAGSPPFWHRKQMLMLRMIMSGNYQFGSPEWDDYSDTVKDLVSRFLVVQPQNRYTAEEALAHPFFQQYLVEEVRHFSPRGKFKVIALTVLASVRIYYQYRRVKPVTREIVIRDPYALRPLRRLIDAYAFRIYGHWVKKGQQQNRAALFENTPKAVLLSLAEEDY
Chain of Src (P12931 whole entry): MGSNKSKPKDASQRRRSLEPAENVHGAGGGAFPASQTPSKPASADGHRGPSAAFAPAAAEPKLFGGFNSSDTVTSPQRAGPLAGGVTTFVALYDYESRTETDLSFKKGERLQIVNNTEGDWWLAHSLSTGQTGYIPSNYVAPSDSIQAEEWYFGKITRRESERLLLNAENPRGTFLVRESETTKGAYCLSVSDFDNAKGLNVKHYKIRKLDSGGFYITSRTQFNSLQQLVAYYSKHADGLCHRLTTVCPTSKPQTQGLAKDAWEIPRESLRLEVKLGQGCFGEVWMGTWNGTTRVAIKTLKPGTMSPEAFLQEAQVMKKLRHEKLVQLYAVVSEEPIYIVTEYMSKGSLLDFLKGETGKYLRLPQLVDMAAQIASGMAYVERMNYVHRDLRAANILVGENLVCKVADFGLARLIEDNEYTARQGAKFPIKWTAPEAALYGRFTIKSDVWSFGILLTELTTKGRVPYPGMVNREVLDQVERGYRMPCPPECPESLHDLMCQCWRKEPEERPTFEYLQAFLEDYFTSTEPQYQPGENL

COc1cc(Nc2c(C#N)cnc3cc(OCCCN4CCN(C)CC4)c(OC)cc23)c(Cl)cc1Cl [Bosutinib, bosutinib]
remaining activity at 0.1 µM (BRK; 0.1 µM): 88 ± 11% | remaining activity at 1 µM (BRK; 1 µM): 48% | remaining activity at 0.1 µM (EPH-B2; 0.1 µM): 1 ± 1% | remaining activity at 1 µM (EPH-B2; 1 µM): 0% | remaining activity at 0.1 µM (EPH-B4; 0.1 µM): 10% | remaining activity at 1 µM (EPH-B4; 1 µM): 2% | remaining activity at 0.1 µM (PHK; 0.1 µM): 55% | remaining activity at 1 µM (PHK; 1 µM): 12% | remaining activity at 0.1 µM (Src; 0.1 µM): 1% | remaining activity at 1 µM (Src; 1 µM): 1% | remaining activity at 0.1 µM (STK33; 0.1 µM): 34% | remaining activity at 1 µM (STK33; 1 µM): 17 ± 4% | remaining activity at 0.1 µM (TGFBR1; 0.1 µM): 87 ± 14% | remaining activity at 1 µM (TGFBR1; 1 µM): 101 ± 6% | Activity of Bcr-Abl, Src and Btk in primary mouse macrophages (Bcr-Abl, Src and Btk): completely blocking | IC50 (BTK): 15 nM
